In patent publication US10555987B2, “GHRH agonists for the treatment of ischemic disorders” (UNIVERSITY OF MIAMI, priority 2012, dated 2020):
Non-standard residues stand in square brackets, D forms with d. Residues, ends and D or L forms follow the SMILES beside them. *: point of attachment. Desaminotyrosyl = O=C(CCc1ccc(O)cc1)*; Nle = CCCC[C@H](N)C(=O)O; Orn = NCCC[C@H](N)C(=O)O; Abu = CC[C@H](N)C(=O)O; GABA = NCCCC(=O)O

How the values were obtained:
GH release [1] = experiment: In vivo endocrine activity, GH release after intravenous administration (Table 8); details: rat, i.v. injection
GHRH receptor [2] = biological target: T1, GHRH receptor (Homo sapiens, UniProt Q02643); experiment: GHRH receptor binding, competition with 125I-labeled JV-1-42, human pituitary membrane homogenates (Table 7); design: Normal human pituitaries were purchased from the National Hormone and Peptide Program; tissue National Hormone and Peptide Program (A.F. Parlow, Harbor-UCLA Medical Center, Torrance, Calif.); host or cells: normal human pituitary, membrane fraction; details: JI-38 = 1, Table 7
T1 sequence (Q02643 23-423): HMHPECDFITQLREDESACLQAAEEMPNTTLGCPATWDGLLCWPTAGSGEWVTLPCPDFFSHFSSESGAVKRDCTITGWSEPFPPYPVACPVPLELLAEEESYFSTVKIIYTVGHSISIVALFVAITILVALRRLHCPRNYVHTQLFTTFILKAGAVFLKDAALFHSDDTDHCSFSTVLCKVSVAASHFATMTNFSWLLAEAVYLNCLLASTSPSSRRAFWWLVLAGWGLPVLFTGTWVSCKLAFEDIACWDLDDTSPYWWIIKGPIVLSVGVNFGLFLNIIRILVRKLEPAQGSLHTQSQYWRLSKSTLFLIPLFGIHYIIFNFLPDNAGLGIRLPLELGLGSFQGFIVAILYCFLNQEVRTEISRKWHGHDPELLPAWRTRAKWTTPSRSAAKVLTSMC
Text: Normal human pituitaries were purchased from the National Hormone and Peptide Program (A.F. Parlow, Los Angeles, County Harbor-UCLA Medical Center, Torrance, Calif.).

GHRH receptor [3] = biological target: T1, GHRH receptor; experiment: Receptor binding in vitro, 125I-labeled [His1,Nle27]-hGHRH(1-32)NH2, membrane receptors of human anterior pituitary cells (Table 14)
Description: Normal human pituitary was purchased from the National Hormone and Peptide Program (UCLA Medical Center, Torrance, Calif.).

GH release [4] = experiment: GH releasing potency in vivo, subcutaneous administration (Example 14, Table 12); design: species or system rat; details: s.c.
Method in brief: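 Potency is expressed relative to GHRH(1-29)NH2 and JI-38 (each = 1), via equivalent GHRH(1-29)NH2 dose read from a standard curve. Peptides in 5% mannitol given i.v. or s.c. to anaesthetised male Sprague-Dawley rats (200-250 g); serum GH measured by ELISA at selected times.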

GH release [5] = experiment: In vivo endocrine activity, GH release after subcutaneous administration (Table 9); details: rat, subcutaneous (s.c.) injection
Description: Subcutaneous Administration. Adult male rats were used and anesthetized with pentobarbital (6 mg/100 g, b.w.), by i.p. injection. […] Blood samples were taken from the jugular vein 5, 15 and/or 30 minutes after the injection. The blood samples were centrifuged, plasma was removed and the GH level was measured byELISA. The results are summarized in terms of potency in Table 9.

GHRH receptor [6] = biological target: T1, GHRH receptor; experiment: GHRH receptor binding, competition with 125I-labeled JV-1-42, human pituitary membrane homogenates (Table 5); design: Normal human pituitaries were purchased from the National Hormone and Peptide Program; tissue National Hormone and Peptide Program (A.F. Parlow, Harbor-UCLA Medical Center, Torrance, Calif.); host or cells: normal human pituitary, membrane fraction
Description: Normal human pituitaries were purchased from the National Hormone and Peptide Program (A.F. Parlow, Los Angeles, County Harbor-UCLA Medical Center, Torrance, Calif.). Briefly, in competitive binding analysis, ^125I-labeled JV-1-42 ([…]) was displaced by GHRH agonists at 10^−6 to 10^−12 M.
The final binding affinities were expressed as IC50 values and were calculated by using the LIGAND PC computerized curve-fitting program of Munson and Rodbard as modified by McPherson.

GH release [7] = experiment: GH releasing potency in vivo, intravenous administration (Example 14, Table 13); design: species or system rat; details: i.v.
Description: Male Sprague-Dawley rats, weighing 200-250 g, were purchased from Charles River Laboratory (Wilmington, Mass.) and used for experiments. All animal procedures were approved by the Veterans Affairs Animal Care and Use Committee and were conducted in accordance with additional institutional guidelines as well. Briefly, groups of 5-6 animals were used in each experiment. The rats were anesthetized with 50 mg/kg of sodium pentobarbital (Nembutal, Lundbeck Inc., Deerfield, Ill.). Twenty min after inducing anesthesia, GHRH(1-29)NH2, JI-38, or new analogs were injected into the animals intravenously (i.v.) or subcutaneously (s.c.). The peptides were dissolved in 0.01 M acetic acid to get 1 μg/μl stock solution, and then diluted with 5% mannitol. Control rats received 5% mannitol only. Blood samples were collected from the jugular vein at selected times and were used for serum preparation. Concentrations of GH in rat sera were determined by ELISA. The relative potencies of tested peptides were calculated using GHRH(1-29)NH2 and JI-38 for comparison, whose potency was defined as 1. The equivalent dosage of GHRH(1-29)NH2 to reach the same level of serum growth hormone release after injection of the specific tested peptide was determined from a GHRH(1-29)NH2 standard curve using Origin 6.0 software. […] Serum GH was determined using the rat Growth Hormone ELISA kit (ALPCO Diagnostics, Mill Valley, Calif.) according to the manufacturer's instruction. Absorbance at 405 nm was measured by a Victor 3 Multi-label Counter (Perkin-Elmer, Waltham, Md.).

CCCC[C@H](NC(=O)[C@@H](NC(=O)[C@H](CC(=O)O)NC(=O)[C@H](CCC(N)=O)NC(=O)[C@H](CC(C)C)NC(=O)[C@H](CC(C)C)NC(=O)[C@H](CCCN)NC(=O)[C@H](CCCNC(=N)N)NC(=O)[C@H](C)NC(=O)[C@H](CO)NC(=O)[C@H](CC(C)C)NC(=O)[C@H](CCC(N)=O)NC(=O)[C@H](CC)NC(=O)[C@H](CC(C)C)NC(=O)[C@@H](NC(=O)[C@H](CCCN)NC(=O)[C@H](CCCNC(=N)N)NC(=O)[C@H](Cc1ccc(O)cc1)NC(=O)[C@H](CO)NC(=O)[C@H](CC(N)=O)NC(=O)[C@@H](NC(=O)[C@H](Cc1ccccc1)NC(=O)[C@@H](NC(=O)[C@H](C)NC(=O)[C@H](CC(=O)O)NC(=O)[C@@H](C)NC(=O)CCc1ccc(O)cc1)[C@@H](C)CC)[C@@H](C)O)C(C)C)[C@@H](C)CC)C(=O)N[C@@H](CO)C(=O)N[C@@H](CCCNC(=N)N)C(=O)N[C@@H](CCC(N)=O)C(=O)NCCCC(N)=O [Peptide P-29702, [Dat^1, D-Ala^2, Orn^12, Abu^15, Orn^21, Nle^27, Gln-Gab^30]hGHRH(1-30)NH2] (Desaminotyrosyl-[dA]DAIFTNSYR[Orn]VL[Abu]QLSAR[Orn]LLQDI[Nle]SRQ[GABA]-NH2)
GH releasing potency in vivo relative to JI-38 (=1) (GH release [1]; 5 min after): 0.98 | GH releasing potency in vivo relative to JI-38 (=1) (GH release [1]; 15 min after): 0.99 | GH releasing potency in vivo relative to JI-38 (=1) (GH release [1]; 30 min after): 1.22 | Relative affinity (Binding potency) vs JI-38 (GHRH receptor [2]): 5.06 | Relative affinity (Binding potency) compared to JI-38 (GHRH receptor [3]; JI-38 = 1): 0.83 | Relative affinity (Binding potency) compared to hGHRH(1-29) (GHRH receptor [3]; hGHRH(1-29)NH2 = 1): 2.31 | Serum GH level at selected time after injection (ng/ml), 0 min (GH release [4]; male rats, dose 3 μg/kg, 0 min, mean ± SEM): 43.7 ± 5^ ng/ml | Serum GH level at selected time after injection (ng/ml), 15 min (GH release [4]; male rats, dose 3 μg/kg, 15 min, mean ± SEM): 103.7 ± 23.1 ng/mL | Serum GH level at selected time after injection (ng/ml), 30 min (GH release [4]; male rats, dose 3 μg/kg, 30 min, mean ± SEM): 85 ± 27.8 ng/mL | Relative potency compared to GHRH(1-29), 15 min (GH release [4]; 15 min): 22.4 | Relative potency compared to JI-38, 15 min (GH release [4]; 15 min): 0.35 | Relative potency compared to GHRH(1-29), 30 min (GH release [4]; 30 min): 53.5 | Relative potency compared to JI-38, 30 min (GH release [4]; 30 min): 0.48 | GH releasing potency relative to JI-38 (=1) (GH release [5]; 15 min after): 0.53 | GH releasing potency relative to JI-38 (=1) (GH release [5]; 30 min after): 0.73 | Relative affinity (Binding potency) vs GHRH (GHRH receptor [6]; GHRH(1-29) = 1, Table 5): 81.2 | Relative affinity (Binding potency) vs JI-38 (GHRH receptor [6]; JI-38 = 1, Table 5): 34.2 | Relative potency, 5 min (GH release [7]; 5 min, JI-38 = 1): 1.07 | Relative potency, 15 min (GH release [7]; 15 min, JI-38 = 1): 1.38 | Serum GH level at selected time after injection (ng/ml), 0 min (GH release [7]; dose 1 μg/kg, 0 min, mean ± SEM): 47.7 ± 3.4 ng/mL | Serum GH level at selected time after injection (ng/ml), 5 min (GH release [7]; dose 1 μg/kg, 5 min, mean ± SEM): 578 ± 87.7 ng/mL | Serum GH level at selected time after injection (ng/ml), 15 min (GH release [7]; dose 1 μg/kg, 15 min, mean ± SEM): 273 ± 40.8 ng/mL
